Measured values as given in patent US12551482B2, “Aurora kinase inhibitors” (The Regents of the University of California, priority 2013, dated 2026).
Where two headings read alike, the source gives them in different places.

Assays:
OSC-19 = assay: Cancer cell line profiling, Genomics of Drug Sensitivity Project; details: OSC19, read-out: CD532 EC50 (uM)
K5 = assay: as above; details: read-out: CD532 EC50 (uM)
IPC-298 = assay: as above; details: Homo sapiens, IPC-298, read-out: CD532 EC50 (uM)
RF-48 = assay: as above; details: RF48, read-out: CD532 EC50 (uM)
M-14 = assay: as above; details: Homo sapiens, M14, read-out: CD532 EC50 (uM)
KP-N-YS = assay: as above; details: read-out: CD532 EC50 (uM)
SNU-61 = assay: as above; details: read-out: CD532 EC50 (uM)
SCC-4 = assay: as above; details: Homo sapiens, SCC-4, read-out: CD532 EC50 (uM)
RVH-421 = assay: as above; details: Homo sapiens, RVH-421, read-out: CD532 EC50 (uM)
NB12 = assay: as above; details: read-out: CD532 EC50 (uM)
MZ7-mel = assay: as above
DJM-1 = assay: as above; details: read-out: CD532 EC50 (uM)
HGC-27 = assay: as above; details: Homo sapiens, HGC-27, read-out: CD532 EC50 (uM)
AsPC-1 = assay: as above; details: Homo sapiens, ASPC1, read-out: CD532 EC50 (uM)
CL-11 = assay: as above; details: CL-11, read-out: CD532 EC50 (uM)
A2058 = assay: as above
YAPC = assay: as above; details: Homo sapiens, read-out: CD532 EC50 (uM)
Aurora A protein = target: T1, Aurora A protein (Homo sapiens, UniProt O14965); assay: Dose response immunoblot for Aurora A protein in MYCN-amplified neuroblastoma cell lines; type: cell-based; details: across cell lines (FIGS. 1D and 7)
T1 construct: endogenous in cells; host or cells: SK-N-BE(2), SMS-KCN, Kelly neuroblastoma cells
Procedure: Neuroblastoma tumor cell lines were obtained from the University of California San Francisco Cell Culture Facility (Kelly, SK-N-BE2, and SH-EP). SMS-KCN, SHEP MYCN^wt and MYCN^T58A/S62A cells were obtained. All cells were grown in RPMI with 10% FBS. Neuroblastoma cells were harvested and lysed with Cell Signaling Lysis buffer+1% SDS, sonicated and supernatants boiled in LDS sample buffer (Invitrogen). […] Western blot quantitation performed with ImageJ software.

RL95-2 = assay: Cancer cell line profiling, Genomics of Drug Sensitivity Project; details: Homo sapiens, RL95-2, read-out: CD532 EC50 (uM)
OVKATE = assay: as above; details: read-out: CD532 EC50 (uM)
SK-HEP-1 = assay: as above; details: Homo sapiens, SK-HEP1, read-out: CD532 EC50 (uM)
NUGC-3 = assay: as above
SNU-81 = assay: as above; details: read-out: CD532 EC50 (uM)
phospho-histone H3 = assay: Screen of Kelly MYCN-amplified cells, western blot for phospho-histone H3; type: cell-based; details: 1 μM, 24 hrs
Procedure: Neuroblastoma tumor cell lines were obtained from the University of California San Francisco Cell Culture Facility (Kelly, SK-N-BE2, and SH-EP). SMS-KCN, SHEP MYCN^wt and MYCN^T58A/S62A cells were obtained. All cells were grown in RPMI with 10% FBS. Neuroblastoma cells were harvested and lysed with Cell Signaling Lysis buffer+1% SDS, sonicated and supernatants boiled in LDS sample buffer (Invitrogen). Western blots were performed as described previously (Chanthery et al., 2012), with primary antibodies to MYCN (ab24193, Abcam), Histone H3, P-Histone H3 (S10), Aurora A (Cell signaling), and GAPDH (Millipore). Western blot quantitation performed with ImageJ software.
To test whether this panel of 32 putative conformation-disrupting Aurora A inhibitors would destabilize MYCN, initially Kelly MYCN-amplified neuroblastoma cells were treated with candidate inhibitors and MYCN protein was measured by western blot. Phosphorylation of Histone H3, a known substrate for Aurora A and B and a marker for mitosis, was also assessed. FIGS. 1B and 5 show decreased levels of both MYCN protein and p-Histone H3 in response to several members of the screening panel (quantitated in FIG. 1).

Ca9-22 = assay: Cancer cell line profiling, Genomics of Drug Sensitivity Project; details: Homo sapiens, Ca9-22, read-out: CD532 EC50 (uM)
SNU-5 = assay: as above; details: Homo sapiens, SNU-5, read-out: CD532 EC50 (uM)
NCI-N87 = assay: as above; details: Homo sapiens, NCI-N87, read-out: CD532 EC50 (uM)

T1 sequence (O14965 whole entry): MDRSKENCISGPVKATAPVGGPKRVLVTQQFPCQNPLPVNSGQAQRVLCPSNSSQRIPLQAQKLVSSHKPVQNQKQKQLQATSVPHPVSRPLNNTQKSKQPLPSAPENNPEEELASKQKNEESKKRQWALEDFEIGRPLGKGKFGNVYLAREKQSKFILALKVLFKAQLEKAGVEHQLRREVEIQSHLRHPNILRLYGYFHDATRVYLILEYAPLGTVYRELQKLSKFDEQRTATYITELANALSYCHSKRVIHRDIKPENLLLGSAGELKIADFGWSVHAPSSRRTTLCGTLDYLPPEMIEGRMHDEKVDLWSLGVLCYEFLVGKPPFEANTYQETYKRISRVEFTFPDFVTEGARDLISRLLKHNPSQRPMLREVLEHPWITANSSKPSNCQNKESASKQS

Q: Which results are given for `O=C(Nc1ccc(Nc2nccc(Nc3cc(C4CCCC4)[nH]n3)n2)cc1)Nc1cccc(C(F)(F)F)c1` [CD532, 1-(4-((4-((5-cyclopentyl-1H-pyrazol-3-yl)amino)pyrimidin-2-yl)amino)phenyl)-3-(3-(trifluoromethyl)phenyl)urea]?
A: EC50 (OSC-19): 1.18 µM; EC50 (K5): 1.33 µM; EC50 (IPC-298): 0.574 µM; EC50 (RF-48): 0.903 µM; EC50 (M-14): 0.972 µM; EC50 (KP-N-YS): 0.27 µM; EC50 (SNU-61): 1.02 µM; EC50 (SCC-4): 0.884 µM; EC50 (RVH-421): 0.585 µM; EC50 (NB12): 0.293 µM; EC50 (MZ7-mel; read-out: CD532 EC50 (uM), MZ7-mel cell line, Skin): 0.73 µM; EC50 (MZ7-mel; read-out: CD532 EC50, MZ7-mel cell line, Skin): 0.556 µM; EC50 (DJM-1): 0.427 µM; EC50 (HGC-27): 0.83 µM; EC50 (AsPC-1): 5.41 µM; EC50 (CL-11): 4.93 µM; EC50 (A2058; Homo sapiens, A2058, read-out: CD532 EC50 (uM), A2058 cell line, Skin): 0.975 µM; EC50 (A2058; read-out: CD532 EC50, A2058 cell line, Skin): 1.09 µM; EC50 (YAPC): 5.34 µM; Aurora A protein level (Aurora A protein): downregulated Aurora A protein across cell lines (at higher concentrations); EC50 (RL95-2): 0.335 µM; EC50 (OVKATE): 6 µM; EC50 (SK-HEP-1): 1.6 µM; EC50 (NUGC-3; Homo sapiens, NUGC-3, read-out: CD532 EC50 (uM), NUGC-3 cell line, Stomach): 0.968 µM; EC50 (NUGC-3; read-out: CD532 EC50, NUGC-3 cell line, Stomach): 1.15 µM; EC50 (SNU-81): 0.421 µM; p-Histone H3 level (phospho-histone H3): decreased levels of both MYCN and p-Histone H3 proteins; EC50 (Ca9-22): 0.705 µM; EC50 (SNU-5): 2.51 µM; EC50 (NCI-N87): 10.9 µM
